Measured values reported in US9944591B2, “Active compound and related composition for dermatological use in the pharmaceutical or cosmetic field” (GIULIANI S.P.A., priority 2014, dated 2018).

Columns and labels:
[1] = tested on: ROS (reactive oxygen species); test: Production of ROS by DCFH-DA assay (H2O2-induced oxidative stress); type: cell-based, human
TNF-α = test: Anti-inflammatory effects through gene expression of TNF-alpha on keratinocytes (qRT-PCR); type: cell-based; details: human keratinocytes NCTC 2544, 5 μM, 24 h, LPS 5 μg/ml; FIG. 3
Procedure: In such further test, an immortalized line of human keratinocytes NCTC 2544 is used (Perry V. P. et al., 1957) cultured in sterile flasks ([…]), incubated at 37° C. in a humid atmosphere at 5% CO2 in culture medium MEM (Minimum Essential Medium) supplemented with 10% fetal bovine serum (FBS), 2 mM glutamine, 1% non-essential amino acids, in the presence of 1% penicillin and streptomycin.
When the cells (human keratinocytes NCTC 2544) reached about 80% confluence, they were detached with trypsin/EDTA and seeded at a density of 1×10^6 cells/ml in 12-well plates and incubated at 37° C., 5% CO2 (24 h). […]
The effect of the compounds object of the study on the gene expression of TNF-α was evaluated by quantitative RT-PCR (quantitative reverse transcription-polymerasechainreaction-qRT-PCR). […]
Using a spectrophotometer (Jenway UV/VIS MOD: 6715, BS-6715B0), concentrations were calculated in μg/mL of total RNA extracted at a wavelength of 260 nm.
(§1) Finally, the integrity of RNA (2 μg/mL) was assessed by means of an electrophoresis run on 1% agarose gel. […]
(§2) Extracted and quantified RNA was diluted to a concentration of 2 μg/mL and reverse transcribed into cDNA. […]

[2] = tested on: HAS1 (Hyaluronan Synthase 1); test: Gene expression of HAS1 (hyaluronan synthase 1) on fibroblasts (qRT-PCR); type: cell-based; details: BALB3T3 mouse fibroblasts, 24 h, 2.5 and 5 μM, FIG. 4
Procedure: In this third test, the mouse fibroblast cell line Balb 3T3 Clone A31 (ATCC CCL-163™) (Aaronson and Todaro, 1968) was used, cultured in sterile flasks ([…]), incubated at 37° C. in a humid atmosphere at 5% CO2 in DMEM (Dulbecco's Modified Eagle's Medium) added with 10% bovine fetal serum (CBS), 1% non-essential amino acids, in the presence of 1% penicillin and streptomycin.
The 1:3 split is done every 2 days upon achieving the monolayer by washing with 1×PBS (phosphate buffer without Ca^2+ and Mg^2+) and detachment of cells with a trypsin-EDTA solution at 37° C. for 2 minutes. […]
Gene expression of HAS1 in BALB3T3 cells was evaluated by relative quantitative RT-PCR (quantitative reverse transcription-polymerase chain reaction-qRT-PCR). […]
At the end of incubation with the active compounds of interest, cells were washed with PBS (1×) and finally subjected to RNA extraction procedure. At the end of the extraction, using a spectrophotometer (Jenway UV/VIS MOD: 6715, BS-6715B0), concentrations were calculated in μg/mL of total RNA extracted at a wavelength of 260 nm.
as §1, §2
The Taqman probe is a type of probe that allows the development of fluorescence as the amplification advances. […]

In the case of C/C=C/C=C/C=C/C(=O)NCCCC(=O)O [compound of the invention, 4-((2E,4E,6E)-octa-2,4,6-trienamid)butanoic acid], the “% ROS produced/Ctr, compared to GABA” value ([1]; human keratinocytes NCTC2544, 0.5 μM, versus comparison compound GABA at same concentration, FIG. 2) is reported as “superior antioxidant activity”, the “% ROS produced/Ctr (antioxidant activity)” value ([1]; human keratinocytes NCTC2544, 16 h pre-treatment at 0.5 μM, 1 μM, 5 μM, then 1 mM H2O2 90 min, FIG. 1) is reported as “antioxidant activity” and the “gene expression of TNF-α (2-ΔΔCt) compared to positive control” value (TNF-α) is reported as “reduced expression of TNF-α”. The “gene expression of HAS1 compared to reference compound GABA” value ([2]; versus GABA) was “higher than the reference compound at both concentrations tested” and the “gene expression of HAS1 (2^−ΔΔCt)” value [2] was “increased gene expression of HAS1”.
